BindingDB's records for patent US20240002393 (Hoffmann-La Roche, 2024)

Key:
[1] = biological target: T1, Gamma-aminobutyric acid receptor subunit alpha-2/beta-2/gamma-1 (Human, UniProt P47869+P47870+Q8N1C3); test: Electrophysiology Assay
T1 sequence (Q8N1C3 whole entry): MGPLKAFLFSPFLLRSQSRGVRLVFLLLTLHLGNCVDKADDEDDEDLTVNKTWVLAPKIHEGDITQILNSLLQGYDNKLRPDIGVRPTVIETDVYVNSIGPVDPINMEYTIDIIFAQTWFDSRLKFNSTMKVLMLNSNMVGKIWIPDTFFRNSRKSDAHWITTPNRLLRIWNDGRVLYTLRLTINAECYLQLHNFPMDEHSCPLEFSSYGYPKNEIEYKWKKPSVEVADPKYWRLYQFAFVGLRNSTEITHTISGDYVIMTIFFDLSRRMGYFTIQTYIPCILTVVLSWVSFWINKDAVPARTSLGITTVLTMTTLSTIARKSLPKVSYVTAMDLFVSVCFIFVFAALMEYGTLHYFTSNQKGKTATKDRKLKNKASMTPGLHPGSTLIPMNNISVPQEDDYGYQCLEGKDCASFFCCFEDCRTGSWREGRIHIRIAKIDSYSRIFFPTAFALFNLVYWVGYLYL
T1 sequence (P47869 whole entry): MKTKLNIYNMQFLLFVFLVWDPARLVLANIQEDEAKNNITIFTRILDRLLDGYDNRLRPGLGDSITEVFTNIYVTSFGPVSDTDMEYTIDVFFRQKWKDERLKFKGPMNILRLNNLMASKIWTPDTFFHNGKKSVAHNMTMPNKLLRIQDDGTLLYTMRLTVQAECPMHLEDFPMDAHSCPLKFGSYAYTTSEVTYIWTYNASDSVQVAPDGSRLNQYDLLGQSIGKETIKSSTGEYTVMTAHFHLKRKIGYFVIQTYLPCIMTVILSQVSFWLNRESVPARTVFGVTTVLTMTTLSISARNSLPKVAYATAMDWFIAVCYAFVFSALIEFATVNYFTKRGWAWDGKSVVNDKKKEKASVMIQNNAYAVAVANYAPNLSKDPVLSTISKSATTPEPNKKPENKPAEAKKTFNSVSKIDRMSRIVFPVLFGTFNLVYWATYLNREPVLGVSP
T1 sequence (P47870 whole entry): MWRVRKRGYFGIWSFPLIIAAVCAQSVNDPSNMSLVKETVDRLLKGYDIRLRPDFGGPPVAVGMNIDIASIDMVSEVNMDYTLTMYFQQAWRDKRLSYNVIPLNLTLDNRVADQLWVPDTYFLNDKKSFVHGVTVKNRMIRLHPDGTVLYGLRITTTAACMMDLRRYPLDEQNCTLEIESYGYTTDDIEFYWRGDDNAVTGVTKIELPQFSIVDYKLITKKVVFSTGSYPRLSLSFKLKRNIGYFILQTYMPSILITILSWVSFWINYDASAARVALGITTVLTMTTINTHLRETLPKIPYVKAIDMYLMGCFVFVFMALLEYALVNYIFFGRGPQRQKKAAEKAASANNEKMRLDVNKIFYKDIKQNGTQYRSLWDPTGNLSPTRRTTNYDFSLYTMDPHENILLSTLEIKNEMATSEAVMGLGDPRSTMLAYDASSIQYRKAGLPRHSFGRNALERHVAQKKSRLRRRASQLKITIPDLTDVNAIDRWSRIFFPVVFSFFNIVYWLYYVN
Protocol: Table 2: Electrophysiological experiments were performed using the Roboocyte instrument (MultiChannelSystems, Reutlingen, Germany) on days 3 to 5 after the micro-injection of mRNA. During the experiment the oocytes were constantly superfused by a solution containing (in mM) NaCl 90, KCl 1, HEPES 5, MgCl2 1 CaCl2 1 (pH 7.4). Oocytes were impaled by two glass microelectrodes (resistance: 0.5-0.8 MΩ) which were filled with a solution containing KCl 1M+K-acetate 1.5 M and voltage-clamped to −80 mV. The recordings were performed at room temperature using the Roboocyte two-electrode voltage clamp system (Multichannelsystem). After an initial equilibration period of 1.5 min GABA was added for 1.5 min at a concentration evoking approximately 20% of a maximal current response (EC20). After another rest interval of 2.5 min GABA was again added evoking a response of similar amplitude and shape. […] Current traces were recorded at a digitization rate of 10 Hz during and shortly before and after the GABA application.

[2] = biological target: T2, Gamma-aminobutyric acid receptor subunit alpha-1/beta-3/gamma-2 (Homo sapiens, UniProt P14867+P18507+P28472)
T2 sequence (P14867 whole entry): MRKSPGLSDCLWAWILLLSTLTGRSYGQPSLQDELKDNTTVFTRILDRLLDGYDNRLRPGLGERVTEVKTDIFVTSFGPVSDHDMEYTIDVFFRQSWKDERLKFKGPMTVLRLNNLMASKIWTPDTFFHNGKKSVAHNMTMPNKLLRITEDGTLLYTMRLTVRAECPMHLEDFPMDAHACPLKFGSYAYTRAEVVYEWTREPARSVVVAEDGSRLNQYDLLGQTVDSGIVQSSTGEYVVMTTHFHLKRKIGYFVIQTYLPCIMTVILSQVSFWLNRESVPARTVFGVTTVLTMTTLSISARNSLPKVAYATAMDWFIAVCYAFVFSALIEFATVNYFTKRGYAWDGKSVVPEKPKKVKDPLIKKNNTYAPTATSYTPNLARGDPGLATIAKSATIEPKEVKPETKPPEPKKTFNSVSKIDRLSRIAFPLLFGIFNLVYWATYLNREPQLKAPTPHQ
T2 sequence (P18507 whole entry): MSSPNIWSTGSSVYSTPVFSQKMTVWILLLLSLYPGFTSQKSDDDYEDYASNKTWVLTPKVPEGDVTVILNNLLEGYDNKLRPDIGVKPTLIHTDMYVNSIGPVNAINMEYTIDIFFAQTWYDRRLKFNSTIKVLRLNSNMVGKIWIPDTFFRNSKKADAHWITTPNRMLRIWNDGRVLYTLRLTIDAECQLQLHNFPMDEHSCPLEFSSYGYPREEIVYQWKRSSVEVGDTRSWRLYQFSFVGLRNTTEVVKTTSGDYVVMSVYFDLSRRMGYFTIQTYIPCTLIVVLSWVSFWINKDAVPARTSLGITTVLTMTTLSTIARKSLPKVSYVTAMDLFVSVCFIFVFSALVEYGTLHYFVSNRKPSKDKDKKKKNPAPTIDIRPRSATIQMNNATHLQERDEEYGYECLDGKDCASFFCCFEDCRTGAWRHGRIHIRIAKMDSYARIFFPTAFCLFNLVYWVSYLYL
T2 sequence (P28472 whole entry): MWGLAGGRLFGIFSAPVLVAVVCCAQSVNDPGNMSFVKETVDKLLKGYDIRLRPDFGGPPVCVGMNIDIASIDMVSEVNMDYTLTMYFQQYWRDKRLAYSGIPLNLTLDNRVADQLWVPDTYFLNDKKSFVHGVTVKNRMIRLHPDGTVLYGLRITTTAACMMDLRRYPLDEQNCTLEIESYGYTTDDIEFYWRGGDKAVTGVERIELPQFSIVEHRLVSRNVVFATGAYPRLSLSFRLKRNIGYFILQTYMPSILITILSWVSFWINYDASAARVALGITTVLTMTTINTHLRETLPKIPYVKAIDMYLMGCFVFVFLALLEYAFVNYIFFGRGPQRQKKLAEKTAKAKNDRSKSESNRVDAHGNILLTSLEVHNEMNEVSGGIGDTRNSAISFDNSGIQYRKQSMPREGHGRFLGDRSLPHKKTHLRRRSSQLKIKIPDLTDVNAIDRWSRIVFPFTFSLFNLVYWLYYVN

With `CCc1nnc2n1-c1ccc(C(F)(F)F)c(Cl)c1C(c1c(F)cccc1F)=N[C@H]2C` [US20240002393, Example 108] the Ki [1] was 47 nM and the Ki [2] was 2370 nM.
